Assay results published in patent US20130116286A1, “DROXIDOPA AND PHARMACEUTICAL COMPOSITION THEREOF FOR THE TREATMENT OF NEURALLY MEDIATED HYPOTENSION” (Chelsea Therapeutics, Inc., priority 2007, published 2013).

Legend:
MAO-A than MAO-B = conditions: cited from earlier work
plasma norepinephrine = test: Plasma norepinephrine concentration after dosing with droxidopa or droxidopa combinations in rats; type: in vivo, male Sprague Dawley rats; conditions: versus vehicle alone, 2 hours post-dosing, rat
Procedure: The pharmacokinetic properties of droxidopa combinations useful in the methods of the invention were evaluated in male Sprague Dawley rats.
Administration of droxidopa combinations was seen to affect plasma norepinephrine concentration in comparison to administration of droxidopa alone. Formulation 0 indicates administration of the vehicle alone without droxidopa or a droxidopa combination of the invention and provides a baseline comparative of plasma norepinephrine levels in an untreated subject.

## O=C(NCCN1CCOCC1)c1ccc(Cl)cc1 [moclobemide]
MAO-A than MAO-B
  selectivity for MAO-A than MAO-B: approximately three times more selective for MAO-A than MAO-B

## NC(C(=O)O)C(O)c1ccc(O)c(O)c1 (stereo not drawn) [droxidopa, threo-3-(3,4-dihydroxyphenyl)serine]
Plasma norepinephrine
  increase in plasma norepinephrine concentration: ~5 fold
